{"source": "patent US10351594B2", "about": "“Process for preparing compounds having triple activities of thrombolysis, antithrombosis, and radical scavenging” (Shanghai Lumosa Therapeutics Co., Ltd., priority 2013, dated 2019)", "key": {"[1]": {"tested_on": "thrombus (rat arteriovenous bypass thrombolysis model)", "assay": "Thrombolytic activity via intravenous administration, rat arteriovenous bypass thrombolysis model", "assay_type": "in vivo, male SD rats", "settings": "for Weight reduction in thrombus: n = 10", "protocol": "200-220 g male SD rats were anesthetized with 20% urethane solution (6 mL/kg, ip). Anesthetized rats were fixed in a supine position, and the right common carotid artery was separated, clamped at the proximal end with an arterial clip, and penetrated with a suture at the proximal and distal ends, respectively. The suture at the distal end is clipped tightly by a hemostatic clamp at the skin/fur. Cannulation was performed at the distal end, the arterial clamp was loosened, and about 1 ml arterial blood was discharged into a 1 mL EP vial. 0.1 mL rat arterial blood was injected into a vertically fixed glass tube (15 mm in length, with an inner diameter of 2.5 mm and an outer diameter of 5.0 mm, sealed with a rubber stopper at the bottom), into which was immediately inserted a thrombus immobilization screw made of stainless steel. […] 40 min after the blood coagulated, the rubber stopper at the bottom of the glass tube was removed, the stem of the thrombus immobilization screw was fixed by forceps, and the thrombus-wrapped thrombus immobilization screw was carefully taken out from the glass tube and precisely weighted.\nA bypass cannula was composed of 3 segments. The middle segment was a polyethylene tube having a length of 60 mm and an inner diameter of 3.5 mm. The segments on both ends were similar polyethylene tubes having a length of 100 mm, an inner diameter of 1 mm and an outer diameter of 2 mm, one end of which was pulled to form a tip, with an outer diameter of 1.0 mm (used in inserting into the rat carotid artery or vein), the other end of which was sheathed by a polyethylene tube having a length of 7 mm and an outer diameter of 3.5 mm (thickened, used in inserting into the polyethylene tube of the middle segment). The inner wall of the 3-segment cannula was entirely silylated. The thrombus-wrapped thrombus immobilization screw was placed into the polyethylene tube of the middle segment, and both ends of the tube sheath the thickened ends of two polyethylene tubes. The cannula was filled with a heparin solution in normal saline (50 IU/kg) through the tip end by using an injector and was ready for use.\nThe left external jugular vein of the rat was separated and penetrated with a suture at the proximal and distal ends respectively, and the distal end was ligated. An incision was carefully made on the exposed left external jugular vein, and the tip of the bypass cannula prepared as described above was inserted into the proximal end of the incision in the left external jugular vein, away from the stem of the thrombus immobilization screw in the middle segment of the bypass cannula (which accommodated the accurately weighed thrombus immobilization screw). A precise amount of heparin in saline (50 IU/kg) was injected through the tip at the other end by using an injector. At this moment, without removing the injector from the polyethylene tube, the tube between the injector and the polyethylene tube was clamped with a hemostatic clamp. The blood flow was stopped by clamping the proximal end of the right common carotid artery with an arterial clip, and an incision was cut carefully across the common carotid artery near the clip. The injector was pulled out of the polyethylene tube through the tip, and the tip of the polyethylene tube was then inserted into the proximal end of the artery incision. Both ends of the bypass cannula were fixed to the artery or vein with #4 sutures.\nA scalp needle was used to pass saline solution, a urokinase in saline solution or varied concentrations of the compounds in saline solution through the middle section of the bypass cannula (which accommodated the accurately weighed thrombus immobilization screw) to a position at the proximal vein and away from the thrombus immobilization screw. The artery clip was then removed to allow blood to flow from the artery to the vein through the bypass cannula. A rat arteriovenous bypass thrombolysis model was thus established. […]"}, "[2]": {"assay": "Hydroxyl free radical scavenging activity (DMPO signal peak height)", "assay_type": "biochemical", "settings": "n = 6; read-out: EC50 of scavenging •OH", "protocol": "11.316 mg DMPO ([…], Sigma) was dissolved in 1 mL of pure water to obtain 0.1 M DMPO solution. […] FeSO4.7H2O was dissolved in 1 mL of pure water to obtain 10 mM solution. 30% medical H2O2 was diluted to 0.2%.\nThe first peak height of the OH signal of 2.5 μL FeSO4.7H2O solution+2.5 μL DMPO solution+5 μL H2O2 solution+5 μL water was measured and repeated for 6 times. This peak height defined as the known peak height of OH signal. The first peak height of the OH signal of 2.5 μL FeSO4.7H2O solution+2.5 μL DMPO solution+5 μL H2O2 solution+5 μL solution of one of the compounds 5Aa-p was measured and repeated for 6 times. This peak height defined as the residual peak height of the OH signal scavenged by one of the compounds 5Aa-p. Scavenging ratio=(known peak height of OH signal−residual peak height of OH signal of compounds 5Aa-p)/known peak height of OH signal"}, "[3]": {"tested_on": "stroke rats", "assay": "Therapeutic effect in stroke rats (microthrombus injected into the brain, treated at once): Zealonga score and TTC infarction volume", "assay_type": "in vivo, SD male rats", "settings": "for Neural function scores: Zealonga method, 24 hours after awake, n = 9; for Percentage of infarction volume: cerebral infarction, TTC, n = 7", "protocol": "SD male rats (280-300 g) were randomly divided to UK positive control group at a dose of 20000 IU/kg, blank control group with normal saline solution, compound control group with PAK at a dose of 5 μmol/kg, and compound 5Ak group at a dose of 1 μmol/kg (high), 0.1 μmol/kg (medium), and 0.01 μmol/kg (low). A 10% chloral hydrate solution (400 mg/kg) was injected intraperitoneally into rats for anesthesia. […] The 10 μl blood drawn was placed in a 1 mL EP vial and kept at RT for 30 min to allow the coagulation of blood and then transferred into a −20° C. refrigerator for 1 hour to allow the formation of solid coagulation. 1 hour later, the blood clots were taken out, 1 mL normal saline was added therein, and then the blood clots were broken into relatively uniform microthrombus by a steel spatula. The microthrombus suspension was then transferred into a 1 mL injector for use. […] The common jugular vein was separated, and then injected with UK at the dose of 20000 IU/kg, normal saline solution, or compound 5Ak at the dose of 1 μmol/kg. The vein was ligated. 3 drops of penicillin was dropped on the wound. The wound was sewed, and animals were waited for awake.\n24 hours after the rats were awake, the degree of damage in neural function was evaluated by the Zealonga method. […] The evaluation results were statistically analyzed and subjected to t-test.\nAfter the rats were awake for 24 hours and assessed for their degree of damage in neural function by Zealonga method, they were anesthetized with urethane followed by immediate decapitation and removal of the brain. Brain tissues were kept in a −20° C. refrigerator for 2 hours, and coronal sections of about 2 mm were successively sliced from the prefrontal end for a total of 5 sections and then placed into a 2% TTC solution to incubate without light at 37° C. for 30 min. The color change in brain sections was observed: normal brain tissues were stained red by TTC, while ischemic brain tissues appeared in white. Photographs were taken by using a digital camera and processed with image statistics software, and the volume of infarction in brain tissues and the area of normal brain tissues in the coronal sections were calculated. The ratio of the cerebral infarction volume of each group was statistically calculated and subject to t-test."}}, "note": "“Also recorded” adds a separate entry of the source. Marks after values point to notes of the source that are not given here.", "data": [{"compound": "C[C@H](NC(=O)[C@@H]1CCCN1)C(=O)N[C@@H](CCCCN)C(=O)NCCCC[C@H](NC(=O)[C@@H]1Cc2cc(O)c(O)cc2C(C)(C)N1)C(=O)O", "note": "[Compound 5Ak, 3S-6,7-dihydroxy-1,1-dimethyl-1,2,3,4-tetrahydro-isoquinoline-3-acyl-Lys(Pro-Ala-Lys)]", "values": [{"measurement": "Weight reduction in thrombus", "setting": "[1]; Table 2, 5Ak 0.001 nmol/kg i.v.", "result": "11.73 ± 2.15 ^c mg"}, {"measurement": "Weight reduction in thrombus", "setting": "[1]; Table 2, 5Ak 0.01 nmol/kg i.v.", "result": "14.62 ± 2.46", "unit": "b mg"}, {"measurement": "Weight reduction in thrombus", "setting": "[1]; Table 2, 5Ak 0.1 nmol/kg i.v.", "result": "21.61 ± 4.62^a mg"}, {"measurement": "Weight reduction in thrombus", "setting": "[1]; rat, intravenous injection, 5Aa-p 0.1 nmol/kg, 1 hour", "result": "19.38 ± 2.81^b mg"}, {"measurement": "Thrombolytic activity, result in words", "setting": "[1]; rat, intravenous, 0.1 nmol/kg (5Ak also 0.01 and 0.001 nmol/kg), urokinase 20000 U/kg", "result": "comparable to that of urokinase; also recorded: higher thrombolytic activity; also recorded: highest thrombolytic activity; also recorded: obvious dose-effect relationship"}, {"measurement": "EC50", "setting": "[2]", "result": "422 ± 82", "unit": "µM"}, {"measurement": "Therapeutic effect in stroke rats, result in words", "setting": "[3]; 5Ak 1, 0.1, 0.01 μmol/kg", "result": "effectively prevent the brain ischemia rats from occurrence of dyskinesia and cerebral infarction; also recorded: dose dependent"}, {"measurement": "Neural function scores", "setting": "[3]; 5Ak 0.01 μmol/kg", "result": "2.30 ± 0.95^c"}, {"measurement": "Neural function scores", "setting": "[3]; 5Ak 0.1 μmol/kg", "result": "1.40 ± 1.07^b"}, {"measurement": "Neural function scores", "setting": "[3]; 5Ak 1 μmol/kg", "result": "1.10 ± 0.74^a"}, {"measurement": "Percentage of infarction volume", "setting": "[3]; 5Ak 0.01 μmol/kg", "result": "18.05 ± 5.77^c %"}, {"measurement": "Percentage of infarction volume", "setting": "[3]; 5Ak 0.1 μmol/kg", "result": "9.88 ± 2.52^b %"}, {"measurement": "Percentage of infarction volume", "setting": "[3]; 5Ak 1 μmol/kg", "result": "3.44 ± 1.99^a %"}]}]}
